In the assay the test system is BDF1 mice, Adenocarcinoma 755 s.c., tumor weight T/C. Nature of the assay: NCI In Vivo Anticancer Drug Screen. Data for tumor model Adenocarcinoma 755 (subcutaneous) in B6D2F1 (BDF1) mice. Particulars: endpoint: mean tumor weight, higher = larger tumour. The procedure, abridged:
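Readout: T/C, i.e. treated-group measurement over vehicle-control measurement. Endpoint is survival or tumor size in tumor-bearing mice given compound.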

“And” between values parts separate entries of the source, which are not always exact repeats. Equal entries are not always repeated.

For `Cn1cnc([N+](=O)[O-])c1Sc1ncnc2nc[nH]c12`, the T/C was 79 % of control (dose: 0.03 mg/kg/injection, schedule: Q01DX011 (oral), vehicle: other); 63 % of control (dose: 0.06 mg/kg/injection, schedule: Q01DX011 (oral), vehicle: other); 48 % of control (dose: 0.12 mg/kg/injection, schedule: Q01DX011 (oral), vehicle: other); 64 % of control (dose: 0.25 mg/kg/injection, schedule: Q01DX006 (iv), vehicle: other); 36 % of control (dose: 0.25 mg/kg/injection, schedule: Q01DX011 (oral), vehicle: other); 58 % of control (dose: 0.5 mg/kg/injection, schedule: Q01DX006 (iv), vehicle: other). Moreover, the T/C is, setting by setting: (dose: 0.5 mg/kg/injection, schedule: Q01DX011 (oral), vehicle: other) 40 % of control; (dose: 1.0 mg/kg/injection, schedule: Q01DX006 (iv), vehicle: other) 16 % of control; (dose: 1.0 mg/kg/injection, schedule: Q01DX011 (oral), vehicle: other) 5 % of control and 10 % of control; (dose: 2.0 mg/kg/injection, schedule: Q01DX006 (iv), vehicle: other) 9 % of control; (dose: 2.0 mg/kg/injection, schedule: Q01DX011 (ip), vehicle: other) 3 % of control; (dose: 2.5 mg/kg/injection, schedule: Q01DX011 (ip), vehicle: methylcellulose (MC)) 15 % of control and 36 % of control. Also, the T/C reads like this: (dose: 2.5 mg/kg/injection, schedule: Q01DX011 (oral), vehicle: other) 2 % of control; (dose: 3.1 mg/kg/injection, schedule: Q01DX001 (ip), vehicle: other) 56 % of control; (dose: 4.0 mg/kg/injection, schedule: Q01DX006 (iv), vehicle: other) 3 % of control; (dose: 4.0 mg/kg/injection, schedule: Q01DX011 (im), vehicle: other) 3 % of control; (dose: 4.0 mg/kg/injection, schedule: Q01DX011 (iv), vehicle: other) 17 % of control; (dose: 4.0 mg/kg/injection, schedule: Q01DX011 (sc), vehicle: other) 1 % of control. In addition, the T/C is, setting by setting: (dose: 4.0 mg/kg/injection, schedule: Q#A X022 (ip), vehicle: other) 2 % of control; (dose: 5.0 mg/kg/injection, schedule: Q01DX011 (ip), vehicle: methylcellulose (MC)) 4 % of control and 7 % of control; (dose: 6.3 mg/kg/injection, schedule: Q01DX001 (ip), vehicle: other) 52 % of control; (dose: 8.0 mg/kg/injection, schedule: Q01DX011 (im), vehicle: other) 1 % of control; (dose: 8.0 mg/kg/injection, schedule: Q01DX011 (iv), vehicle: other) 2 % of control; (dose: 9.5 mg/kg/injection, schedule: Q01DX011 (ip), vehicle: methylcellulose (MC)) 2 % of control and 8 % of control. Also, the T/C (dose: 10.0 mg/kg/injection, schedule: Q01DX011 (ip), vehicle: methylcellulose (MC)) was 4 % of control and 7 % of control; the T/C (dose: 12.0 mg/kg/injection, schedule: Q03DX004 (ip), vehicle: other) was 2 % of control; the T/C (dose: 12.5 mg/kg/injection, schedule: Q01DX001 (ip), vehicle: other) was 28 % of control; the T/C (dose: 16.0 mg/kg/injection, schedule: Q01DX011 (iv), vehicle: other) was 1 % of control; the T/C (dose: 19.0 mg/kg/injection, schedule: Q01DX011 (ip), vehicle: methylcellulose (MC)) is 2 % of control; the T/C (dose: 20.0 mg/kg/injection, schedule: Q01DX011 (oral), vehicle: other) is 7 % of control. Moreover, the T/C was 1 % of control and 2 % of control and 20 % of control (dose: 25.0 mg/kg/injection, schedule: Q01DX001 (ip), vehicle: other); 17 % of control (dose: 28.0 mg/kg/injection, schedule: Q07DX002 (ip), vehicle: other); 2 % of control (dose: 38.0 mg/kg/injection, schedule: Q01DX011 (ip), vehicle: methylcellulose (MC)); 9 % of control (dose: 40.0 mg/kg/injection, schedule: Q01DX011 (oral), vehicle: other); 41 % of control (dose: 50.0 mg/kg/injection, schedule: Q01DX001 (ip), vehicle: other); 3 % of control (dose: 56.0 mg/kg/injection, schedule: Q07DX002 (ip), vehicle: other). Further, the T/C (dose: 96.0 mg/kg/injection, schedule: Q03DX004 (ip), vehicle: other) was 1 % of control; the T/C (dose: 100.0 mg/kg/injection, schedule: Q01DX001 (ip), vehicle: other) is 1 % of control; the T/C (dose: 112.0 mg/kg/injection, schedule: Q07DX002 (ip), vehicle: other) is 8 % of control; the T/C (dose: 200.0 mg/kg/injection, schedule: Q01DX001 (ip), vehicle: other) is 45 % of control.

As to `CN(C)c1nc(N)c2ncn(C3OC(CO)C(O)C3O)c2n1` (stereo not given), the T/C (dose: 31.0 mg/kg/injection, schedule: Q01DX011 (ip), vehicle: methylcellulose (MC)) was 80 % of control and the T/C (dose: 125.0 mg/kg/injection, schedule: Q01DX011 (ip), vehicle: methylcellulose (MC)) was 74 % of control.

On to `CC(=O)CSc1nc(N)nc2nc[nH]c12`, for which the T/C is 32 % of control (dose: 3.9 mg/kg/injection, schedule: Q01DX011 (ip), vehicle: methylcellulose (MC)); 6 % of control (dose: 7.8 mg/kg/injection, schedule: Q01DX011 (ip), vehicle: methylcellulose (MC)); 7 % of control (dose: 15.6 mg/kg/injection, schedule: Q01DX011 (ip), vehicle: methylcellulose (MC)).

As to `O=C1C=CC(=O)O1` (tested in a mixture with another compound), the T/C is 39 % of control and 57 % of control (dose: 11.0 mg/kg/injection, schedule: Q01DX011 (ip), vehicle: carboxymethylcellulose (CMC)); 56 % of control (dose: 11.0 mg/kg/injection, schedule: Q01DX011 (ip), vehicle: saline); 18 % of control and 38 % of control (dose: 22.0 mg/kg/injection, schedule: Q01DX011 (ip), vehicle: carboxymethylcellulose (CMC)); 31 % of control (dose: 22.0 mg/kg/injection, schedule: Q01DX011 (ip), vehicle: saline); 11 % of control and 32 % of control (dose: 90.0 mg/kg/injection, schedule: Q01DX011 (ip), vehicle: carboxymethylcellulose (CMC)).

As for `CC(CNC(=O)CCOS(C)(=O)=O)NC(=O)CCOS(C)(=O)=O` (stereo not given), the T/C by setting is: (dose: 14.0 mg/kg/injection, schedule: Q01DX011 (ip), vehicle: carboxymethylcellulose (CMC)) 71 % of control; (dose: 28.0 mg/kg/injection, schedule: Q01DX011 (ip), vehicle: carboxymethylcellulose (CMC)) 36 % of control and 60 % of control; (dose: 113.0 mg/kg/injection, schedule: Q01DX011 (ip), vehicle: carboxymethylcellulose (CMC)) 2 % of control (2×) and 3 % of control; (dose: 225.0 mg/kg/injection, schedule: Q01DX011 (ip), vehicle: carboxymethylcellulose (CMC)) 7 % of control.

Consider `Cc1ccccc1N(C=O)c1ccccc1C`, for which the T/C is 108 % of control (dose: 250.0 mg/kg/injection, schedule: Q01DX011 (ip), vehicle: methylcellulose (MC)); 120 % of control (dose: 500.0 mg/kg/injection, schedule: Q01DX011 (ip), vehicle: methylcellulose (MC)); 110 % of control (dose: 1000.0 mg/kg/injection, schedule: Q01DX011 (ip), vehicle: methylcellulose (MC)).

Take `C[C@]12C=CC(=O)C=C1[C@@H](F)C[C@@H]1[C@@H]2[C@@H](O)C[C@@]2(C)[C@H]1CC[C@]2(O)C(=O)CO`: the T/C was 63 % of control and 64 % of control (dose: 3.0 mg/kg/injection, schedule: Q01DX011 (ip), vehicle: methylcellulose (MC)); 51 % of control (dose: 3.0 mg/kg/injection, schedule: Q01DX011 (sc), vehicle: steriod suspending solution); 41 % of control and 43 % of control (dose: 6.0 mg/kg/injection, schedule: Q01DX011 (ip), vehicle: methylcellulose (MC)); 53 % of control (dose: 6.0 mg/kg/injection, schedule: Q01DX011 (sc), vehicle: steriod suspending solution); 37 % of control and 41 % of control (dose: 12.0 mg/kg/injection, schedule: Q01DX011 (ip), vehicle: methylcellulose (MC)); 46 % of control (dose: 12.0 mg/kg/injection, schedule: Q01DX011 (sc), vehicle: steriod suspending solution). In addition, the T/C is 30 % of control and 40 % of control (dose: 24.0 mg/kg/injection, schedule: Q01DX011 (ip), vehicle: methylcellulose (MC)); 30 % of control (dose: 24.0 mg/kg/injection, schedule: Q01DX011 (sc), vehicle: steriod suspending solution); 23 % of control (dose: 48.0 mg/kg/injection, schedule: Q01DX011 (sc), vehicle: steriod suspending solution).

In the case of `Nc1ncc(N)c(N)n1`, the T/C is, setting by setting: (dose: 30.0 mg/kg/injection, schedule: Q01DX011 (ip), vehicle: carboxymethylcellulose (CMC)) 89 % of control; (dose: 60.0 mg/kg/injection, schedule: Q01DX011 (ip), vehicle: carboxymethylcellulose (CMC)) 116 % of control; (dose: 120.0 mg/kg/injection, schedule: Q01DX011 (ip), vehicle: carboxymethylcellulose (CMC)) 111 % of control; (dose: 240.0 mg/kg/injection, schedule: Q01DX011 (ip), vehicle: carboxymethylcellulose (CMC)) 96 % of control.

A word on the T/C: it is the result in the treated group divided by that in the control group, in per cent.

The values above are taken from PubChem BioAssay AID180 (DTP/NCI, 2004).
